Assay results reported in patent US10689362B2, “Quinoxaline compounds as type III receptor tyrosine kinase inhibitors” (Development Center for Biotechnology, priority 2016, dated 2020).

Experiments:
CSF-1R kinase = CSF-1R kinase (Homo sapiens (Human), UniProt P07333); assay: CSF-1R kinase assay (AlphaScreen); assay type: biochemical; settings: class symbol
Protocol: Inhibition of CSF-1R kinase activity by a test compound disclosed herein was estimated by AlphaScreen (PerkinElmer). […] Reactions were incubated at 30° C. for 45 min and stopped by adding 5 μL of 50 mM EDTA. Analysis of resulting product using an AlphaScreen kit, and counted with Enspire Alpha (PerkinElmer). […] The IC50 values of quinoxaline compounds of this invention against CSF-1R kinase were determined using the GraphPad Prism 5 software.

c-KIT kinase = c-KIT kinase (Homo sapiens (Human), UniProt P10721); assay: c-KIT kinase assay (radiometric); assay type: biochemical
Outline: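 Recombinant c-Kit (20 ng) with 2 μg Poly-(Glu4:Tyr1) in MOPS pH 7.0 buffer with MgCl2/MnCl2, 10 μM ATP plus [^33P]-ATP, 4% DMSO final, 60 min at 30° C. Stopped with phosphoric acid, filter-captured and scintillation counted; IC50 from curve fit.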

FLT3 kinase = FLT3 kinase (Homo sapiens (Human), UniProt P36888); assay: FLT3 kinase assay (radiometric); assay type: biochemical; settings: bound
Outline: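 Recombinant FLT3 (5 ng) phosphorylating poly(Glu4:Tyr1) (2 μg) with 10 μM ATP plus [^33P]-ATP in MOPS pH 7.0 buffer, 4% DMSO final, 60 min at 30° C. Reaction stopped with phosphoric acid, filter-captured and scintillation-counted; IC50 derived from dose-response.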

PDGFRβ kinase = PDGFRβ kinase (Homo sapiens (Human), UniProt P09619); assay: PDGFRβ kinase assay (radiometric); assay type: biochemical
Outline: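 Radiometric assay: recombinant PDGFRβ with poly(Glu4:Tyr1) in MOPS pH 7.0 buffer containing Mg2+/Mn2+, 10 μM ATP plus [33P]-ATP, and compound at 4% DMSO final. Incubated 60 min at 30° C, stopped with phosphoric acid, filter-captured and scintillation-counted. IC50 from curve fitting.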

[1] = tested on: CSF-1-dependent M-NFS-60 mouse myeloid leukemia cell; assay: M-NFS-60 cell proliferation assay (CellTiter-96); assay type: cell-based; settings: Cytotoxicity, M-NFS-60 cells, 72 hours
Outline: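 CSF-1-dependent M-NFS-60 cells seeded at 2000 cells/well, settled overnight at 37 °C, 5% CO2, then exposed to increasing compound concentrations for 72 h. Viability read by CellTiter 96 AQueous One reagent (4 h) at 490 nm absorbance.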

[2] = tested on: MV4-11 human acute myeloid leukemia cell with FLT3-ITD mutation; assay: MV4-11 cell proliferation assay (CellTiter-96); assay type: cell-based; settings: Cytotoxicity, MV4-11 cells, 72 hours
Outline: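 MV4-11 cells (FLT3-ITD, FLT3-dependent growth) seeded at 6500 cells/well, incubated overnight at 37° C., 5% CO2, then exposed to increasing compound concentrations for 72 hours. Viability read by CellTiter96 AQueous One reagent (4 hours), absorbance at 490 nm.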

[3] = tested on: Kasumi-1 human acute myeloid leukemia cell with c-KIT N822K activating mutation; assay: Kasumi-1 cell proliferation assay (CellTiter-96); assay type: cell-based; settings: Cytotoxicity, Kasumi-1 cells, 72 hours
Outline: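 Kasumi-1 cells, seeded at 64000 cells/well and incubated overnight at 37 °C, were exposed to increasing compound concentrations for 72 h. Viability was measured by CellTiter96 AQueous One reagent (4 h) and absorbance at 490 nm.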

[4] = tested on: THP-1 human acute monocytic leukemia cell harboring NRAS G12D mutation; assay: THP-1 cell proliferation assay (counter screen, CellTiter-96); assay type: cell-based; settings: Cytotoxicity, THP-1 cells (counter screen), 72 hours
Outline: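 THP-1 cells, RTK-independent owing to NRAS G12D, seeded at 5000/well, incubated overnight at 37 °C/5% CO2, then exposed to increasing compound concentrations for 72 h. CellTiter96 AQueous One reagent added for 4 h; viability from absorbance at 490 nm.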

[5] = tested on: osteoclast precursors (osteoclast differentiation); assay: Osteoclast tartrate-resistant acid phosphatase assay; assay type: cell-based; settings: 168 h, at 1 μM treatment, 7 days, RANKL and M-CSF, read-out: inhibition activity against osteoclast differentiation
Outline: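 Differentiation inhibition was scored at 1 μM compound in duplicate, using supernatant TRAP activity read at 550 nm with an acid phosphatase kit.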

Chain of c-KIT kinase (P10721 26-976): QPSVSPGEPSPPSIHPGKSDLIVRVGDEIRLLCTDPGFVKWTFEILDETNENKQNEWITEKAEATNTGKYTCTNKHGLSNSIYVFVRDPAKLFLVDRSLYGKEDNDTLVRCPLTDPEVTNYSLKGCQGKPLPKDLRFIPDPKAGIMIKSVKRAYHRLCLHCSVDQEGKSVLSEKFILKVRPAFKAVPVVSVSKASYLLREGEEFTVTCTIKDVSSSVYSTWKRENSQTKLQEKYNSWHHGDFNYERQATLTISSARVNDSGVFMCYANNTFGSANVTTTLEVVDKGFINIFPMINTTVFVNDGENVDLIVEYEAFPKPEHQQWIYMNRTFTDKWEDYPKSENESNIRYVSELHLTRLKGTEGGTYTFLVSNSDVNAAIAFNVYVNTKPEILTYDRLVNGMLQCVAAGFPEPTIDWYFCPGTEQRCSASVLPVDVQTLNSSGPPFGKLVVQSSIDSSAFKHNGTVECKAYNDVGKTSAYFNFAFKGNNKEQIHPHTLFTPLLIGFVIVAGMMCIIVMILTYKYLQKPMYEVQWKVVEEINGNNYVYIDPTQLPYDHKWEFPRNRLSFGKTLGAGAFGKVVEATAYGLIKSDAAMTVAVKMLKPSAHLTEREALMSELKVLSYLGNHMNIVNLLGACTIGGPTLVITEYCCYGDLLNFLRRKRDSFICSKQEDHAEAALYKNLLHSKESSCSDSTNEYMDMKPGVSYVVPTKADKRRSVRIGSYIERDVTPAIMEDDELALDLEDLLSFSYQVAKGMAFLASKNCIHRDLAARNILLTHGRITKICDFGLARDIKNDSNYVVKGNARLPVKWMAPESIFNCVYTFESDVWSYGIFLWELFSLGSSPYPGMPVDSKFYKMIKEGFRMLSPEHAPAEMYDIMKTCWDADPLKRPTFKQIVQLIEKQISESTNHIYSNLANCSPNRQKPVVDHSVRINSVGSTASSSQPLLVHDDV
Chain of CSF-1R kinase (P07333 20-972): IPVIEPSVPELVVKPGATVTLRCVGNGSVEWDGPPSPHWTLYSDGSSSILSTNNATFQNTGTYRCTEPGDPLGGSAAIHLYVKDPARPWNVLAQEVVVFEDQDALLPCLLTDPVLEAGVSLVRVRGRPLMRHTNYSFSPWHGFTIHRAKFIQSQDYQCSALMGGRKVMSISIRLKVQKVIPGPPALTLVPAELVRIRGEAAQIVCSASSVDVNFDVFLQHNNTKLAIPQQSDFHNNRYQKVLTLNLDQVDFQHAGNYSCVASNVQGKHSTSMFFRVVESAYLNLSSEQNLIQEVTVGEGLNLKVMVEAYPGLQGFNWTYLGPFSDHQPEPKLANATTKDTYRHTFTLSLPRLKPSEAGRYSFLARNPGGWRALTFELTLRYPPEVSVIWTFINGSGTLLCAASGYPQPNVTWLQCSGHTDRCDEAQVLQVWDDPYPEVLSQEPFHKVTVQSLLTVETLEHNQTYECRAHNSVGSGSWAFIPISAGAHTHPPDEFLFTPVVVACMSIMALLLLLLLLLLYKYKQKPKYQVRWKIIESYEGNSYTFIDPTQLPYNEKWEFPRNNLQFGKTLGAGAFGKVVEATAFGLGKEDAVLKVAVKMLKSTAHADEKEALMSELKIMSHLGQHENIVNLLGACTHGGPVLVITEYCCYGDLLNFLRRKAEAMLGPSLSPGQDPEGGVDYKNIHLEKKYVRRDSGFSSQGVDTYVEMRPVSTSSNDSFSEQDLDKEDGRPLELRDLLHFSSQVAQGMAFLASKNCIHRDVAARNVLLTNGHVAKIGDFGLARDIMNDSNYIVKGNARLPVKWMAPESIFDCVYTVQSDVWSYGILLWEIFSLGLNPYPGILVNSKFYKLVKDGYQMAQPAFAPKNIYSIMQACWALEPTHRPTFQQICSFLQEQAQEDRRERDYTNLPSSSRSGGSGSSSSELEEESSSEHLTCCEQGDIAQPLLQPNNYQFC
Chain of PDGFRβ kinase (P09619 33-1106): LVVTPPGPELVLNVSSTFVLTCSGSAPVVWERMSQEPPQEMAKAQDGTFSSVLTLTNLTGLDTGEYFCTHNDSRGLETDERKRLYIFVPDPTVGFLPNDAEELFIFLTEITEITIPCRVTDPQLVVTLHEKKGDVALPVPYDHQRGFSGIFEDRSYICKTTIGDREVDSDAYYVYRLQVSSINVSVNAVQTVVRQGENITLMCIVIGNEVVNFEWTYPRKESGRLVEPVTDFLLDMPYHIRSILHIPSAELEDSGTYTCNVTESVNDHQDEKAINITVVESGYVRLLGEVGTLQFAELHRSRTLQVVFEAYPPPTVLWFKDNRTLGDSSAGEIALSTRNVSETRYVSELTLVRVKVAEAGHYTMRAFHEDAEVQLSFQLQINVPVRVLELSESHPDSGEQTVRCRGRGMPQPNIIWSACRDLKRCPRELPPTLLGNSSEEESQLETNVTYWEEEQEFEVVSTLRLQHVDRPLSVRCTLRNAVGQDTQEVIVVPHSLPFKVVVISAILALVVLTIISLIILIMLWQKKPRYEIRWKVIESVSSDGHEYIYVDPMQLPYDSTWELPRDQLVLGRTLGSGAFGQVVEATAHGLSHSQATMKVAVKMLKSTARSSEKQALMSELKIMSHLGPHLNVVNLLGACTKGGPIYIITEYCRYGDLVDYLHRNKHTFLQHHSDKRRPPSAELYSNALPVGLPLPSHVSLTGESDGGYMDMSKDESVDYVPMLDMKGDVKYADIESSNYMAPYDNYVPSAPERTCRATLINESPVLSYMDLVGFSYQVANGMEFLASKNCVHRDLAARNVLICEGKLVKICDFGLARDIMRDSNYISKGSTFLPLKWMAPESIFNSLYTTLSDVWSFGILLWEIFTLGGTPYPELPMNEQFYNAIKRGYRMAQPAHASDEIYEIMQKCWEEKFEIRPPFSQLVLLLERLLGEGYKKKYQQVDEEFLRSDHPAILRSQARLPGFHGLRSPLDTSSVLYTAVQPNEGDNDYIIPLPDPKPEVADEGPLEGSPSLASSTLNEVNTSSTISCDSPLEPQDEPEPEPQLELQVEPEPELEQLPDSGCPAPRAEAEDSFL
Chain of FLT3 kinase (P36888 27-993): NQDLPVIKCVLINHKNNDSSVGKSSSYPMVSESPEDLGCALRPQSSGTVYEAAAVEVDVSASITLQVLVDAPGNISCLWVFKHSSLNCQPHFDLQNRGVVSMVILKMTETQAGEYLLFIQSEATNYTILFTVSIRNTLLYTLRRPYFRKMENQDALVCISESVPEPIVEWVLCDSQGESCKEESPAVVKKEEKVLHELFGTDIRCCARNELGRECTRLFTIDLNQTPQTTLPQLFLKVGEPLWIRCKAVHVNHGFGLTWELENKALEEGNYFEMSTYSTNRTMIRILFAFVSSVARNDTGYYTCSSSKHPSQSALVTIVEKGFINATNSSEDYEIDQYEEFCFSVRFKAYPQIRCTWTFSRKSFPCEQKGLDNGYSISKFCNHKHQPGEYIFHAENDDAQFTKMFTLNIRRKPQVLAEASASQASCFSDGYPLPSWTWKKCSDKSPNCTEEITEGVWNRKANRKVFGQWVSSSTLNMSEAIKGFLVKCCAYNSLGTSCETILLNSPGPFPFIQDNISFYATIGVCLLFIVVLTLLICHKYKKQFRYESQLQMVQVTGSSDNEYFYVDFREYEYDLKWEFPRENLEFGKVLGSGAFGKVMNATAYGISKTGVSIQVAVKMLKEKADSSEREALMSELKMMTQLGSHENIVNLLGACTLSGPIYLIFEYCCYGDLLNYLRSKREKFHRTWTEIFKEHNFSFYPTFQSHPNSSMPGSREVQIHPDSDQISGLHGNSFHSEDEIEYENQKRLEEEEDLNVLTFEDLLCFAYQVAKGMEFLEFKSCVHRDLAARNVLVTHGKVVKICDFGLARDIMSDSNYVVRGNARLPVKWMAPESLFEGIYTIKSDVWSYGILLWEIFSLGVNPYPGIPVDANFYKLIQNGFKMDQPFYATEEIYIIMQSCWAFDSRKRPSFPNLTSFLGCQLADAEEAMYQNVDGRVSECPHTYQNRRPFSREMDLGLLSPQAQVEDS

SMILES | IC50 (CSF-1R kinase) [nM] | IC50 (c-KIT kinase; class symbol) [nM] | IC50 (FLT3 kinase) [nM] | IC50 (PDGFRβ kinase; bound) [nM] | IC50 [1] [nM] | IC50 [2] [nM] | IC50 [3] [nM] | IC50 [4] [nM] | inhibition at 1 µM [5] [%] | IC50 (c-KIT kinase; bound) [nM] | IC50 (PDGFRβ kinase; class symbol) [nM]
C=C(C)c1cnc2ccc(Nc3ccc(OCc4ccc(OC)cc4)c(OC)c3)cc2n1 [Example 106, N-(3-methoxy-4-((4-methoxybenzyl)oxy)phenyl)-3-(prop-1-en-2-yl)quinoxalin-6-amine] | < 100 | 300 to 1000 | > 1000 | > 1000 | 300 to 1000 | > 10000 | 1000 to 10000 | > 10000 | > 50 | – | –
CCCc1ccc(COc2ccc(Nc3ccc4ncc(N5CCOCC5)nc4c3C#N)cc2OC)cn1 [Example 98, 6-((3-methoxy-4-((6-propylpyridin-3-yl)methoxy)phenyl)amino)-3-morpholinoquinoxaline-5-carbonitrile] | < 100 | < 100 | > 1000 | > 1000 | < 300 | 1000 to 10000 | < 300 | > 10000 | > 50 | – | –
COc1cc(Nc2ccc3ncc(N4CCOCC4)nc3c2C#N)ccc1OCc1ccc(F)c(F)c1 [Example 99, 6-((4-((3,4-difluorobenzyl)oxy)-3-methoxyphenyl)amino)-3-morpholinoquinoxaline-5-carbonitrile] | < 100 | – | > 1000 | > 1000 | < 300 | > 10000 | > 10000 | > 10000 | > 50 | > 1000 | –
COc1ccc(COc2ccc(N(C)c3ccc4ncc(N5CCOCC5)nc4c3C#N)cc2OC)cc1 [Example 60, 6-((3-methoxy-4-((4-methoxybenzyl)oxy)phenyl)(methyl)amino)-3-morpholinoquinoxaline-5-carbonitrile] | < 100 | 300 to 1000 | > 1000 | > 1000 | < 300 | 1000 to 10000 | 1000 to 10000 | > 10000 | > 50 | – | –
COc1ccc(COc2ccc(Nc3ccc4ncc(N5CCCC5)nc4c3C#N)cc2OC)cc1 [Example 62, 6-((3-methoxy-4-((4-methoxybenzyl)oxy)phenyl)amino)-3-(pyrrolidin-1-yl)quinoxaline-5-carbonitrile] | < 100 | < 100 | > 1000 | – | < 300 | > 10000 | < 300 | > 10000 | > 50 | – | 300 to 1000
COc1cc(Nc2ccc3ncc(N4CCC(N(C)C)CC4)nc3c2C#N)ccc1OCc1cccc(C#N)c1 [Example 84, 6-((4-((3-cyanobenzyl)oxy)-3-methoxyphenyl)amino)-3-(4-(dimethylamino)piperidin-1-yl)quinoxaline-5-carbonitrile] | < 100 | < 100 | > 1000 | > 1000 | < 300 | 1000 to 10000 | 300 to 1000 | 1000 to 10000 | > 50 | – | –
COc1ccc(COc2ccc(Nc3ccc4ncc(N5CCCC5)nc4c3C#N)cc2OC)cn1 [Example 79, 6-((3-methoxy-4-((6-methoxypyridin-3-yl)methoxy)phenyl)amino)-3-(pyrrolidin-1-yl)quinoxaline-5-carbonitrile] | < 100 | < 100 | > 1000 | > 1000 | < 300 | 1000 to 10000 | 300 to 1000 | > 10000 | > 50 | – | –
COc1cc(N(C)c2ccc3ncc(N4CCOCC4)nc3c2C#N)ccc1OCc1ccc(C2CC2)nc1 [Example 130, 6-((4-((6-cyclopropylpyridin-3-yl)methoxy)-3-methoxyphenyl)(methyl)amino)-3-morpholinoquinoxaline-5-carbonitrile] | < 100 | < 100 | > 1000 | > 1000 | < 300 | 1000 to 10000 | 300 to 1000 | > 10000 | > 50 | – | –
COc1ccc(COc2ccc(Nc3ccc4ncc(N5CCOCC5)nc4c3C#N)cc2OC)cc1C#N [Example 96, 6-((4-((3-cyano-4-methoxybenzyl)oxy)-3-methoxy-phenyl)amino)-3-morpholinoquinoxaline-5-carbonitrile] | < 100 | 100 to 300 | > 1000 | > 1000 | < 300 | 1000 to 10000 | > 10000 | > 10000 | > 50 | – | –
COc1ccc(COc2ccc(Nc3ccc4ncc(N5CCN(C)CC5)nc4c3C#N)cc2OC)cn1 [Example 95, 6-((3-methoxy-4-((6-methoxypyridin-3-yl)methoxy)phenyl)amino)-3-(4-methylpiperazin-1-yl)quinoxaline-5-carbonitrile] | < 100 | 100 to 300 | > 1000 | > 1000 | < 300 | 1000 to 10000 | 300 to 1000 | 1000 to 10000 | > 50 | – | –
COc1cc(Nc2ccc3ncc(N4CCOCC4)nc3c2C#N)ccc1OCc1ccccc1 [Example 88, 6-((4-(benzyloxy)-3-methoxyphenyl)amino)-3-morpholinoquinoxaline-5-carbonitrile] | < 100 | < 100 | > 1000 | > 1000 | < 300 | 1000 to 10000 | 300 to 1000 | > 10000 | > 50 | – | –
COc1cc(Nc2ccc3ncc(N4CCC4)nc3c2C#N)ccc1OCc1cccc(C#N)c1 [Example 87, 3-(azetidin-1-yl)-6-((4-((3-cyanobenzyl)oxy)-3-methoxyphenyl)amino)quinoxaline-5-carbonitrile] | < 100 | 100 to 300 | > 1000 | > 1000 | 300 to 1000 | > 10000 | 1000 to 10000 | > 10000 | > 50 | – | –
COc1cc(Nc2ccc3ncc(N4CCN(C)CC4)nc3c2C#N)ccc1OCc1cccc(C#N)c1 [Example 78, 6-((4-((3-cyanobenzyl)oxy)-3-methoxyphenyl)amino)-3-(4-methylpiperazin-1-yl)quinoxaline-5-carbonitrile] | < 100 | 100 to 300 | > 1000 | > 1000 | < 300 | > 10000 | 300 to 1000 | > 10000 | > 50 | – | –
COc1ccc(COc2ccc(Nc3ccc4ncc(N5CCOCC5)nc4c3C#N)cc2OC)nc1 [Example 132, 6-((3-methoxy-4-((5-methoxypyridin-2-yl)methoxy)phenyl)amino)-3-morpholinoquinoxaline-5-carbonitrile] | < 100 | 300 to 1000 | > 1000 | > 1000 | 300 to 1000 | > 10000 | > 10000 | > 10000 | > 50 | – | –
COc1cc(Nc2ccc3ncc(N4CCOCC4)nc3c2C#N)ccc1OCc1ccc(C(F)(F)F)nc1 [Example 73, 6-((3-methoxy-4-((6-(trifluoromethyl)pyridin-3-yl)methoxy)phenyl)amino)-3-morpholinoquinoxaline-5-carbonitrile] | < 100 | < 100 | > 1000 | > 1000 | < 300 | > 10000 | < 300 | > 10000 | > 50 | – | –
